# Patent US7169930B2, “Analogs of epothilone” (The Scripps Research Institute, priority 2002, dated 2007)
# Tests used:
# [1] = molecular target: taxoid binding site of microtubules; assay: Fluorescent taxoid (Flutax-2) displacement assay; settings: 37° C., read-out: equilibrium dissociation constant Kd
# Description: In addition to the above biological assays, the relative potency of each epothilone analogue was measured by the fluorescent taxoid displacement assay (Andreu, J. M.; Barasoain, I. Biochemistry 2001, 40, 11975–11984). The purpose of these experiments was to compare the equilibrium constants with which microtubules bind at their taxane site the epothilone analogues investigated. The inhibition of the binding of the well-characterized fluorescent taxoid Flutax-2 (Souto, A. A.; et al. Angew. Chem. Int. Ed. Engl. 1995, 34, 2710–2712; Diaz, J. F.; et al. J. Biol. Chem. 2000, 275, 26265–26276; Abal, M.; et al. Cell. Motil. Cytoskeleton 2001, 49, 1–15) to microtubules by each of the epothilone analogues was measured at 37° C. (FIG. 2). […]
# FIG. 2 illustrates a chart showing the displacement of the fluorescent taxoid Flutax-2 (50 nM) from microtubule binding sites (50 nM) by competing ligands at 37° C. […] Representative curves for selected epothilone analogues (3, 4, and 8) are presented in this figure to exemplify how the binding affinities were measured for each compound in Table 3.
# FIG. 16 illustrates a table disclosing binding affinities of epothilone analogues to the taxoid binding site of microtubules. […] The binding constant of the reference ligand Flutax-2 was measured by centrifugation and fluorescence anisotropy, at each temperature (Diaz, J. F.; et al. J. Biol. Chem. 2000, 275, 26265–26276).
# porcine tubulin = porcine tubulin (Sus scrofa, UniProt P02554); settings: data from ref. 3; cited from earlier work
# [2] = tested on: 1A9 human ovarian carcinoma cells; settings: previous data, Tetrahedron 2002, 58, 6413; cited from earlier work
# [3] = tested on: 1A9 human ovarian carcinoma cells; assay: Cytotoxicity, 72 h growth inhibition SRB (sulforhodamine-B) assay, parental cell line; assay type: cell-based
# Description: The biological activities of the synthesized epothilones were evaluated through cytotoxicity, in vitro tubulin polymerization, and tubulin binding assays. Cytotoxicity was first evaluated in a set of ovarian carcinoma cell lines, including a parental cell line (IA9) and three drug-resistant cell lines, namely the paclitaxel-resistant strains (Giannakakou, P.; et al. J. Biol. Chem. 1997, 272, 17118–17125) IA9/PTX10 and IA9/PTX22 and the epothilone-resistant strain (Giannakakou, P.; et al. Proc. Natl. Acad. Sci. U.S.A. 2000, 97, 2904–2909) 1A9/A8. These resistant cell lines harbor distinct acquired β-tubulin mutations which affect drug-tubulin interaction and result in impaired taxane and epothilone-driven tubulin polymerization. The results of these biological investigations are summarized in Table 1 (Skehan, P.; et al. J. Natl. Cancer Inst. 1990, 82, 1107–1112). […]
# (§1) The biological activities of the synthesized epothilones were evaluated through cell growth inhibition assays (cytotoxicity assays). Cytotoxicity was first evaluated in a set of ovarian carcinoma cell lines, including a parental cell line (IA9) and three drug-resistant cell lines, namely the paclitaxel-resistant cell lines IA9/PTX10 and IA9/PTX22 (Giannakakou, P.; et al. J. Biol. Chem. 1997, 272, 17118–17125.) and the epothilone-resistant cell line 1A9/A8 (Giannakakou, P.; et al. Proc. Natl. Acad. Sci. 2000, 97, 2904–2909.). […]
# [4] = tested on: KB-31 human epidermoid carcinoma cells; assay: Cytotoxicity, 96 hour drug exposure, protein dye method, parent epidermoid line; assay type: cell-based; settings: KB 3-1, KB-31 cells, 96 hour exposure
# Description: (§2) The biological activities of the synthesized epothilones were evaluated through cytotoxicity, in vitro tubulin polymerization, and tubulin binding assays. Cytotoxicity was first evaluated in a set of ovarian carcinoma cell lines, including a parental cell line (IA9) and three drug-resistant cell lines, namely the paclitaxel-resistant strains (Giannakakou, P.; et al. J. Biol. Chem. 1997, 272, 17118–17125) IA9/PTX10 and IA9/PTX22 and the epothilone-resistant strain (Giannakakou, P.; et al. Proc. Natl. Acad. Sci. U.S.A. 2000, 97, 2904–2909) 1A9/A8. […]
# as §1
# (§3) FIG. 15 illustrates a table disclosing the tubulin polymerization potency and cytotoxicity of epothilones 1–8, 10–14, and paclitaxel against human epidermoid cancer cell lines. […] Relative resistance (RR) was calculated by dividing the IC50 value for the resistant cell line by that of the sensitive cell line. […]
# KB-8511 cells [5] = settings: previously shown, Tetrahedron 2002, 58, 6413; cited from earlier work
# KB-8511 cells [6] = assay: Cytotoxicity, 96 hour drug exposure, protein dye method, Pgp-overexpressing line; assay type: cell-based, human; settings: versus KB-31; Table 2
# Description: as §2, §1, §3
# Chain of porcine tubulin (P02554 whole entry): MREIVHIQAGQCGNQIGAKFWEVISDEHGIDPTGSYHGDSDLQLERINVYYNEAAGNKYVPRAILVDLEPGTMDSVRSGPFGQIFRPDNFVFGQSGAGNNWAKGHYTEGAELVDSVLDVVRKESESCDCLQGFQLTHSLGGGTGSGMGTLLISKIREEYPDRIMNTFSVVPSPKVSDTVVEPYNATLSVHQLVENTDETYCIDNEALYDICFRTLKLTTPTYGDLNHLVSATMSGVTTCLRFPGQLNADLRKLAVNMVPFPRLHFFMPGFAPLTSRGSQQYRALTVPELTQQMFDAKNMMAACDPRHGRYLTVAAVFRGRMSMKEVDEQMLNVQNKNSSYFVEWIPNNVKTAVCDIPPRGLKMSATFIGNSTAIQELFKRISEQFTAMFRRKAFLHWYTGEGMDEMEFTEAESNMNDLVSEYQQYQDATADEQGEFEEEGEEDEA
# Chain of porcine tubulin (P02550 whole entry partner): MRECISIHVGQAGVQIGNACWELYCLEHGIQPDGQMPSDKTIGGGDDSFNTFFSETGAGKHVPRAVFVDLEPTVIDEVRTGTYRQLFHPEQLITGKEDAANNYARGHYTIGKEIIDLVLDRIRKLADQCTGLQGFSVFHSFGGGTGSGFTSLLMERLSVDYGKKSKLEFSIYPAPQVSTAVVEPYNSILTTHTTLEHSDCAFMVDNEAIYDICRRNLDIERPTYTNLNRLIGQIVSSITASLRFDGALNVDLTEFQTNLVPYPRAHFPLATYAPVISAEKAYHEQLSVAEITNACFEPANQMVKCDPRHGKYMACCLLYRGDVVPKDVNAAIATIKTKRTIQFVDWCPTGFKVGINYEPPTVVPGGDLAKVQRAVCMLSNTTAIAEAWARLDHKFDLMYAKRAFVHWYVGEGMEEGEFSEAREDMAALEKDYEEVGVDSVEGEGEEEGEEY
structure (smiles),measurement,setting,value
"C/C(=C\c1csc(C)n1)[C@@H]1C[C@@H]2O[C@@H]2CCC[C@H](C)[C@H](O)[C@@H](C)C(=O)C(C)(C)[C@@H](O)CC(=O)O1 [Compound 1, epothilone A]",Kd,[1],34 ± 4 nM
same,% TP (tubulin polymerization),porcine tubulin,69%
"CSc1nc(/C=C(\C)[C@@H]2C[C@@H]3O[C@]3(C)CCC[C@H](C)[C@H](O)[C@@H](C)C(=O)C(C)(C)[C@@H](O)CC(=O)O2)cs1 [Compound 3, 2-(thiomethyl)thiazole epothilone B]",Kd,[1],0.64 ± 0.24 nM
same,fold more active than the parent epothilone B,[2],about 2 fold
CC(=Cc1ccc(C)cn1)C1CC2CC2(C)CCCC(C)C(O)C(C)C(=O)C(C)(C)C(O)CC(=O)O1 (centres unmarked) [Compound 8],IC50,"[3]; Homo sapiens, 1A9 cells, 72 h SRB assay",1.7 nM
same,IC50,[4],0.9 nM
CC(=O)O[C@H]1C(=O)[C@@]2(C)[C@H]([C@H](OC(=O)c3ccccc3)[C@]3(O)C[C@H](OC(=O)[C@H](O)[C@@H](NC(=O)c4ccccc4)c4ccccc4)C(C)=C1C3(C)C)[C@]1(OC(C)=O)CO[C@@H]1C[C@@H]2O [paclitaxel],fold less active against KB-8511 cells compared to KB-31 cells,KB-8511 cells [5],214 fold
same,fold less active against KB-8511 cells,KB-8511 cells [6],214 fold
same,% TP (tubulin polymerization),porcine tubulin,49%
"C/C(=C\c1csc(C)n1)[C@@H]1C[C@@H]2O[C@]2(C)CCC[C@H](C)[C@H](O)[C@@H](C)C(=O)C(C)(C)[C@@H](O)CC(=O)O1 [Compound 2, epothilone B]",fold more active than epothilone A (1),"[3]; cis epoxide series, conclusion drawn collectively from all three assays",at least 10 fold
same,% TP (tubulin polymerization),porcine tubulin,90%
